Non-standard residues stand in square brackets, D forms with d. Residues, ends and D or L forms follow the SMILES beside them. Nle = CCCC[C@H](N)C(=O)O
Assays:
APP [1] = assay: APP processing (mature APP, αCTF, βCTF) by western blot; format: cell-based, human; details: for effect of kinase inhibitor alone on APP processing / CTF levels: CHO-7W or CHO-CAB, LiCl 1-10 mM; for effect of kinase inhibitor pretreatment on the effect of DIF-1 on APP processing: with 30 μM DIF-1; for effect of proteasome inhibitor alone on APP CTF levels: CHO-CAB, 10 μM
Dictyostelium discoideum = details: cited from earlier work
[2] = test system: human leukemia K562 cells; details: Kubohara 1999; cited from earlier work
GSK = details: cited from earlier work
cyclin D1 = assay: Cyclin D1 level by western blot; details: for effect on cyclin D1 level (proteasome inhibitor alone): CHO-CAB, 10 μM
Protocol: Following treatment of each cell line with or without DIF-1 (1-30 μM) and/or other inhibitors, cells were lysed in cold RIPA buffer (20 mM Tris-HCl (pH 7.4) buffer containing 150 mM NaCl, 2 mM EDTA, 1% Nonidet® P-40 (NP-40), 50 mM NaF, 1 mM Na3VO4, 1 mM Na2MoO4, 10 mg/ml aprotinin, and 10 mg/ml leupeptin), supplemented with protease inhibitor tablets from Roche (Switzerland). Protein amounts were quantified in triplicate using the BCA assay from Pierce. Equal amounts of protein extracts were fractionated by sodium dodecyl sulfate polyacrylamide gel electrophoresis (SDS-PAGE) and transferred to polyvinylidene difluoride membranes. The membranes were blocked for 1 hour with 5% fat-free powdered milk or 5% BSA, incubated overnight at 4° C. with primary antibodies (1:1000 or 1:5000), washed with TTBS and then incubated at room temperature with appropriate peroxidase-conjugated secondary antibodies (1:5000). Blots were repeatedly washed with TTBS and target proteins were detected using an enhanced chemiluminescence (ECL) system (Amersham Pharmacia Biotech, New Jersey, USA) and XOMAT™ Kodak® film.
Densitometry analysis of western blot data was performed on a PC computer using QuantityOne® software obtained from Bio-Rad® Laboratories, Inc. (California, USA). Loading variations between western blot lanes were normalized according to the GAPDH signal prior to any experimental quantification. Each western blot presented in the figures is representative of at least five independent experiments to ensure reproducibility of the results unless noted otherwise.
CHO-CAB cells were treated with lithium chloride (10mM). […] To ensure that the results observed were due to proteasome inhibition, we assessed the effects of lactacystin and ALLN on cyclin D1 levels. […] The data represents that of three separate experiments.

APP ubiquitin-conjugates = APP ubiquitin-conjugates by immunoprecipitation and western blot; details: CHO-CAB; DIF-1 30 μM, lactacystin 10 μM, ALLN 10 μM
Protocol: For immunoprecipitations, 1 mg of total protein was diluted with extraction buffer and precleared with protein G-conjugated agarose beads (Pierce). The precleared samples were incubated overnight with anti-APP antibodies or nonimmune IgG (Jackson Laboratories). Immunocomplexes were captured with Protein G agarose beads, washed five times with extraction buffer and heated for 5 min at 95° C. in SDS gel-loading buffer.
CHO-CAB cell protein extracts (1 mg) were immunoprecipitated using APP antibodies. The immunoprecipitated complexes were analyzed by western blotting using anti-ubiquitin antibodies. […] Molecular Weight markers (kDa) are shown on the left. GAPDH levels are shown below each blot. The data represents that of three separate experiments.
To determine whether the proteasome-mediated degradation of APP is accompanied by increased levels of poly-ubiquitinated APP, we investigated the ubiquitination status of APP in extracts of CHO-CAB cells treated in the absence or presence of DIF-1 (30 μM), lactacystin (10 μM), ALLN (10 μM), DIF-1+lactacystin and DIF-1+ALLN.

[3] = test system: APP phosphorylation on residue T668; assay: APP T668 phosphorylation by western blot; format: cell-based, human; details: CHO-7W and CHO-CAB; DAPT alone, or DAPT with DIF-1 (30 μM)
Protocol: Next, whether or not DIF-1 treatment affected the degree of T668 phosphorylation was examined by western blot (FIG. 11). Briefly, effects of DIF-1 on APP T668 phosphorylation were compared between vehicle-treated control and 250 nM of DAPT identically in each cell line. Western analysis of 15 μg of total protein was probed overnight at 4° C. with anti-APP Cterminal antibody (C66-676-695) (1:5000) and then detected on film using ECL and HRP-conjugated secondary antibodies (1:5000). […] This band has also been detected in other CHO lines where APP expression is high (˜3 fold) and by different C-terminal APP antibodies (Ab8717-676-695; except 6E10 which recognizes the N-terminal residues 1-17 of the Aβ sequence. For FIG. 11A, cells were treated with DAPT, and DAPT+DIF then were probed with anti-APP antibody (C66). For FIG. 11B, CHO-7W cells were treated with DAPT, and DAPT+DIF, and then probed with polyclonal anti-P668 APP antibody (1:1000) overnight at 4° C. in 5% BSA. After washing, cells were probed with a rabbit HRP-conjugated secondary antibody (1:5000) in BSA for 1 hour at room temperature and signals were detected on film using ECL. FIG. 11C represents CHO-CAB cells and FIG. 11D represents H4 cells expressing APP^SW.

APP [4] = assay: APP processing (mature APP, αCTF, βCTF) by western blot; format: cell-based, human; details: CHO-7W, 250 nM
Protocol: Total protein was collected in RIPA buffer plus protease inhibitors on ice and briefly sonicated. They lysate was centrifuged at 14,000 rpm for 15 minutes. […] After washing, the blots were probed with a polyclonal HRP-tagged secondary Ab (1:5000) for 1 hour at room temperature then visualized.
A second possibility is that DIF-1 potentiates the activity of y-secretase and processing of αCTFs and βCTFs. To assess this latter possibility, we examined the effect of DIF-1 in the presence of DAPT, a potent γ-secretase inhibitor. Even numbers of CHO-7W cells were plated in 6-well dishes and allowed to grow overnight. The next day, the media was removed and replaced with control media (2 ml) or media containing DAPT, DIF-1 or DAPT and DIF-1. […] After washing, blots were probed with HRP-conjugated secondary antibodies (1:5000) for 1 hour at room temperature. […] It would appear that the mechanism of DIF-1 on APP metabolism is not likely to involve γ-secretase activity, but might impact on either BACE1 levels or activity.
To evaluate this probability, we treated CHO-CAB cells that overexpress human APP^751 and human BACE1 with 30 μM of DIF-1. More specifically, even numbers of CHO-CAB cells were plated in 6-well dishes and allowed to grow overnight. The next day, the media was removed and replaced with control media (2 ml) or media containing DAPT, DIF-1 or DAPT and DIF-1. […] After washing, blots were probed with HRP-conjugated secondary antibodies (1:5000) for 1 hour at room temperature. Each treatment is shown above the blot. […] It would appear that DIF-1 has a greater effect on APP maturation in CHO-CAB cells. Longer exposures reveal the presence of mature APP bands in DIF-1 treated cells.
Next dose-dependent effects of DIF-1 on APP processing were examined. Even numbers of CHO-CAB cells were plated in 6-well dishes and allowed to grow overnight. The next day, cells were treated overnight with either vehicle or increasing concentrations of DIF-1 (5-30 μM).

human APLP1 = assay: APLP1 metabolism by western blot in CHO-A1 cells; format: cell-based; details: 30 μM DIF-1 or 250 nM DAPT, ~20 hours
Protocol: CHO cells that stably express human APLP1, which is a closely related family member of the APPs and known γ-secretase substrate (Eggert et al., 2004), were treated with 30 μM DIF-1, DAPT or DIF-1 plus DAPT (FIG. 7). Equal numbers of CHO-A1 cells stably expressing human APLP1 cells were plated in 6-well dishes and allowed to grow overnight. The next day, the media was removed and replaced with control media (2 ml) or media containing DAPT, DIF-1 or DAPT and DIF-1. […] After washing, blots were probed with HRP-conjugated secondary antibodies (1:5000) for 1 hour at room temperature.

CC[C@H](CO)Nc1nc(NCc2ccccc2)c2ncn(C(C)C)c2n1 [roscovitine, 2-(R)-[[9-(1-Methylethyl)-6-[(phenylmethyl)amino]-9H-purin-2-yl]amino]-1 butanol]
effect of kinase inhibitor alone on APP processing / CTF levels (APP [1]): no effect on APP metabolism
effect of kinase inhibitor pretreatment on the effect of DIF-1 on APP processing (APP [1]): neither blocked nor potentiated the effect of DIF-1 on APP CTF production

CCCCCC(=O)c1c(O)cc(OC)c(Cl)c1O [DIF-3, 1-(3-chloro-2,6-dihydroxy-4-methoxyphenyl)hexan-1-one]
activity in inducing stalk-cell differentiation (Dictyostelium discoideum; in words): much less active
anti-leukemic potency among DIF analogs [2]: most potent anti-leukemic agent

O=C1Cc2c([nH]c3ccc(Br)cc23)-c2ccccc2N1 [kenpaullone, 9-bromo-7,12-dihydro-indolo[3,2d][1]benzazepin-6(5H)-one]
effect of kinase inhibitor alone on APP processing / CTF levels (APP [1]): no effect on the level of APP CTFs
effect of kinase inhibitor pretreatment on the effect of DIF-1 on APP processing (APP [1]): neither attenuated nor potentiated the effect of DIF-1 on APP processing
IC50 (GSK): 23 nM

CCCCC(=O)c1c(O)c(Cl)c(OC)c(Cl)c1O [DIF-2, 1-(3,5-dichloro-2,6-dihydroxy-4-methoxyphenyl)pentan-1-one]
specific activity relative to DIF-1 (stalk-cell differentiation) (Dictyostelium discoideum; percent of the activity of DIF-1): ~40%

CCCC[C@@H](C=O)NC(=O)[C@H](CC(C)C)NC(=O)[C@H](CC(C)C)NC(C)=O [ALLN, Acetyl-L-Leucyl-L-Leucyl-L-Norleucinal, reference compound] (Ac-Leu-Leu-[Nle]-aldehyde)
effect of proteasome inhibitor alone on APP CTF levels (APP [1]): induced an increase in CTF levels
effect on cyclin D1 level (proteasome inhibitor alone) (cyclin D1): increased the levels of cyclin D1
level of APP ubiquitin-conjugates (single agent) (APP ubiquitin-conjugates): increased the level of APP ubiquitin conjugates

CC(=O)N[C@@H](CSC(=O)[C@]1([C@@H](O)C(C)C)NC(=O)[C@H](C)[C@@H]1O)C(=O)O [lactacystin, 3S-hydroxy-2R-(1-hydroxy-2-methylpropyl)-4R-methyl-5-oxo-2 pyrrolidine-carboxylate-N-acetyl-L-cysteine, reference compound]
effect of proteasome inhibitor alone on APP CTF levels (APP [1]): induced an increase in the level of αCTF and βCTF
effect on cyclin D1 level (proteasome inhibitor alone) (cyclin D1): increased the levels of cyclin D1
level of APP ubiquitin-conjugates (single agent) (APP ubiquitin-conjugates): increased the level of APP ubiquitin conjugates

C[C@H](NC(=O)Cc1cc(F)cc(F)c1)C(=O)N[C@H](C(=O)OC(C)(C)C)c1ccccc1 [DAPT, N4-[N-(3,5-difluorophenacetyl-1-alanyl)]-S-phenylglycine tert-butyl ester, reference compound]
amount of T668 phosphorylated APP CTFs [3]: greatly increased the amount of detectable phosphorylated APP at residue T668
α- and βCTF levels with γ-secretase inhibitor alone (APP [4]): increase in the levels of both α- and βCTFs
APLP1 maturation, protein levels, CTF levels (human APLP1): significant increase in the levels of APLP1 CTF
effect on cyclin D1 level (cyclin D1; CHO-7W, 30 μM DIF-1 or 250 nM DAPT): no effect

From patent publication US20100311726A1, “REDUCTION OF BETA-AMYLOID LEVELS BY TREATMENT WITH THE SMALL MOLECULE DIFFERENTIATION-INDUCING FACTOR” (priority 2007, published 2010)
